Test results: ChEMBL document CHEMBL1145982, “Novel dihydrofolate reductase inhibitors. Structure-based versus diversity-based library design and high-throughput synthesis and screening” (J Med Chem, 2003)
Values after ≈ are worked out from the molar mass of the structure shown.

Columns and labels:
Homo sapiens = species: Homo sapiens; experiment: Selectivity ratio against human and […] ATCC 49619 dihydrofolate reductase
Dihydrofolate reductase [1] = molecular target: T1, Dihydrofolate reductase (Staphylococcus aureus, UniProt P0A017); experiment: Inhibitory activity against TMP-Resistance Dihydrofolate reductase from Staphylococcus aureus 157/4696
T1 sequence (P0A017 2-159 limits assumed): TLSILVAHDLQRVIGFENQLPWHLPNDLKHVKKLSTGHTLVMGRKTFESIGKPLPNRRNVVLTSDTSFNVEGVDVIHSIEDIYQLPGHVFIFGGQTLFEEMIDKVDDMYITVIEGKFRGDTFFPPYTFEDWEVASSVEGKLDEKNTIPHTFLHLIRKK

[2] = molecular target: Dihydrofolate reductase (Staphylococcus aureus) (UniProt P0A017)
Dihydrofolate reductase (Staphylococcus aureus), sequence (P0A017 2-159 limits assumed): as above
Description: Tested for inhibition of TMP-Resistant Dihydrofolate reductase from Staphylococcus pneumoniae 1/1.

[3] = molecular target: T2, Dihydrofolate reductase (Homo sapiens) (UniProt P00374); details: Staphylococcus; ATCC 49619
T2 sequence (whole entry): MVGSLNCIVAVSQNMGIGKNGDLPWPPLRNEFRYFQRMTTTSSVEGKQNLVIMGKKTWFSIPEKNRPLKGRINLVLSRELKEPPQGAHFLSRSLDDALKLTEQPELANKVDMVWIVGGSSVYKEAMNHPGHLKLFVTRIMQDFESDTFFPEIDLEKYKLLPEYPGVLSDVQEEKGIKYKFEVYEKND
Description: Antibacterial activity against TMP-susceptible DHFR from Staphylococcus pneumoniae ATCC 49619

Dihydrofolate reductase [4] = molecular target: T1, Dihydrofolate reductase; experiment: Inhibitory activity of TMP-Resistance DHFR against Staphylococcus aureus 157/4696
[5] = molecular target: T2, Dihydrofolate reductase (Homo sapiens); details: Staphylococcus; ATCC 49619; remark: listed apart in the source
Description: Antibacterial activity of TMP-susceptible DHFR against Staphylococcus pneumoniae ATCC 49619

[6] = molecular target: T2, Dihydrofolate reductase (Homo sapiens); details: Staphylococcus
Description: Antibacterial activity against TMP-Resistant Dihydrofolate reductase from Staphylococcus aureus 157/4696

Dihydrofolate reductase [7] = molecular target: T1, Dihydrofolate reductase; experiment: Tested for inhibition of TMP-Resistant Dihydrofolate reductase from Staphylococcus aureus 157/4696.
[8] = molecular target: T2, Dihydrofolate reductase (Homo sapiens); details: Staphylococcus; remark: listed apart in the source
Description: Inhibitory activity of TMP-Resistance Dihydrofolate reductase against Staphylococcus aureus 157/4696

Structure (SMILES)	Ratio (Homo sapiens)	IC50 (Dihydrofolate reductase [1]) [µM]	also measured
CSc1c2n(c3cc(Cl)ccc13)CCN(Cc1cnc(N)nc1N)C2	2600	–	–
COc1cc2c(c3c1OCO3)[C@@H](C)N(Cc1cnc(N)nc1N)CC2	–	1.3	–
COc1cc2c(cc1OC)C(C)N(Cc1cnc(N)nc1N)CC2 (centres undefined)	15	–	–
COc1cc2c(cc1OC)C(c1ccc(Cl)cc1Cl)CN(Cc1cnc(N)nc1N)C2 (centres undefined)	243	2	–
COc1ccc2c(c1)CN(Cc1cnc(N)nc1N)CC2c1cccc([N+](=O)[O-])c1 (centres undefined)	16700	–	–
COc1cc2c(c3c1OCO3)[C@H](C)N(Cc1cnc(N)nc1N)CC2	–	5.4	–
Nc1ncc(CN2CCc3ccccc3C2)c(N)n1	> 90	40	–
CC1c2ccc3c4ccccc4n(C)c3c2CCN1Cc1cnc(N)nc1N (centres undefined)	21	–	–
CC1c2cc(Cc3ccccc3)c(-c3ccccc3)n2CCN1Cc1cnc(N)nc1N (centres undefined)	40	–	–
COc1cc2c(cc1OC)CN(Cc1cnc(N)nc1N)CC2	–	–	MIC [2]: > 32 µg/mL; MIC [3]: 0.5 µg/mL (≈ 1.59 µM); IC50 (Dihydrofolate reductase [4]): 30 µM; MIC [5]: 0.5 µg/mL (≈ 1.59 µM); MIC [6]: 4 µg/mL (≈ 12.7 µM); IC50 (Dihydrofolate reductase [7]): > 100 µM; MIC [8]: 4 µg/mL (≈ 12.7 µM)
Nc1ncc(CN2CCc3c([nH]c4ccccc34)C2)c(N)n1	45000	–	–
